Measured values as given in patent US10017713B2, “Fluorinated surfactant containing compositions” (3M INNOVATIVE PROPERTIES COMPANY, priority 2014, dated 2018).

Columns and labels:
[1] = Surfactant solubility in hydrofluoroether (HFE) solvents by visual clarity; assay type: physicochemical
Procedure: A series of C4F9SO2N-based fluorochemical surfactants were examined to determine their solubility in various hydrofluoro ether (HFE) solvents, including four segregated HFEs (Novec 7100, 7200, 7300, and 7500 available from 3M Company, St Paul, Minn.), one non-segregated HFE (PF-7600 available from 3M Company), and one HFE-Alcohol blend (Novec 71IPA available from 3M Company). Solubility was determined by preparing mixtures of each surfactant in the solvent at various concentrations and determining solubility at each concentration by visual inspection based on the clarity of the solutions after thorough mixing at room temperature. Surfactants that were not completely soluble at a given concentration produced hazy mixtures, whereas surfactants that were completely soluble at a given concentration produced clear homogeneous solutions with no haze. The highest concentration of each surfactant to give a clear, homogeneous solution in each HFE solvent (expressed as wt % surfactant dissolved in HFE solvent) was taken as the maximum solubility.

[2] = Cleaning performance: % particle removal from heavily soiled CMOS sensors
Procedure: A study was conducted using Novec 7100 and Novec 71IPA base solvents with and without the soluble surfactants identified above to determine the impact of dissolved surfactant on cleaning performance of the fluids. In some cases a single surfactant was employed. In other cases a mixture of two surfactants was employed. In all cases the total concentration of fluorochemical surfactant employed was 0.20 wt % (or 2000 ppm) in the base fluid. Cleaning results were compared to pure Novec fluid controls containing no surfactant. The cleaning trials were performed on heavily soiled CMOS sensors containing a high pixel density. These sensors are known to be extremely difficult to clean such that they are essentially free of (particle contaminants.
A precision solvent cleaning system (SK-04Y-6008 customized cleaning system from YMPT, Thailand) was used to clean the CMOS sensors using the process outlined below.
The cleaning performance of each cleaning fluid composition was judged based on the percentage of particles originally present on the CMOS surface that were removed by the cleaning fluid after completion of the cleaning process. The percentage of particles removed was determined by optical microscopy inspection of the CMOS sensors before and after cleaning.
The original (heavily soiled) CMOS sensor was first inspected using an optical microscope and a series of Pre-Clean images were recorded. The CMOS sensor was then cleaned in the precision cleaning system using the process described above and the proscribed solvent/surfactant combination. After cleaning, the CMOS sensor was inspected again by optical microscopy and a Post-Clean image recorded to determine particle counts remaining on the sensor. In this way, the % removal of particles after cleaning of CMOS sensors was determined.

[3] = Novec 71IPA, room temperature (23° C.)
[4] = Novec 7100, room temperature (23° C.)
[5] = Novec 7200, room temperature (23° C.)
[6] = Novec 7300, room temperature (23° C.)
[7] = Novec 7500, room temperature (23° C.)
[8] = PF-7600, room temperature (23° C.)
[9] = Novec 71IPA, total surfactant 0.20 wt %

Compound	Max. Solubility [1, 3] [wt %]	Max. Solubility [1, 4] [wt %]	Max. Solubility [1, 5]	Max. Solubility [1, 6]	Max. Solubility [1, 7] [wt %]	Max. Solubility [1, 8]	% Removal (Percent Particle Removal) [2, 9]	% Removal (Percent Particle Removal) ([2]; Novec 7100, surfactant 0.2 %)	melting point [°C]	solubility in HFE solvents ([1]; room temperature)
O=S(=O)(N(CCOCCO)CCOCCO)C(F)(F)C(F)(F)C(F)(F)C(F)(F)F [FBS(EE)2 (IV), C4F9SO2N(CH2CH2OCH2CH2OH)2]	>10	>10	0.2-0.5 wt %	0.2-0.3 wt %	0.2	8-9 wt %	50-80%	50-80%		
O=S(=O)(N(CCO)CCOCCO)C(F)(F)C(F)(F)C(F)(F)C(F)(F)F [FBSE(EE) (V), C4F9SO2N(CH2CH2OCH2CH2OH) (CH2CH2OH)]	>10	1.5	0.8 wt %	0.9 wt %	0.2	>10 wt %	90-100%	90-100%	45.1	
O=S(=O)(N(CCO)CCO)C(F)(F)C(F)(F)C(F)(F)C(F)(F)F [FBSEE (IX), C4F9SO2N(CH2CH2OH)2]	8.1	0.06	0.04 wt %	0.03 wt %		0.6 wt %	90-100%			
CC(O)CN(CCO)S(=O)(=O)C(F)(F)C(F)(F)C(F)(F)C(F)(F)F (stereo not drawn) [FBSEP (VIII), C4F9SO2N(CH2CH2OH)CH2CH(CH3)OH]	>10	4.0		1.4 wt %		>10 wt %				improved solubility
O=S(=O)(NCCOCCO)C(F)(F)C(F)(F)C(F)(F)C(F)(F)F [H-FBS(EE) (III), C4F9SO2N(H)CH2CH2OCH2CH2OH]	>10	>10	>10 wt %	>10 wt %	>10	>10 wt %	50-80%	50-80%	35.7	
O=S(=O)(NCCO)C(F)(F)C(F)(F)C(F)(F)C(F)(F)F [H-FBSE (X), C4F9SO2NH(CH2CH2OH)]	>10	0.21	0.16 wt %	0.06 wt %		1.5 wt %	50-80%			
C4F9SO2N(CH3)(CH2CH2O)7CH3 [FC-4171 (XI), reference compound]	>10	>10	>10 wt %	0.5 wt %	0.1	>10 wt %	50-80%	50-80%		
